Assay results taken from patent publication US9695155B2, “Herbicidal substituted pyrimidinyloxy benzene compounds” (E. I. DU PONT DE NEMOURS AND COMPANY, priority 2013, dated 2017).

Legend:
barnyardgrass [1] = assay: Test A preemergence; assay type: in vivo, Echinochloa crus-galli; settings: Echinochloa crus-galli, pre-emergence, 240 h, 0 to 100 scale where 0 is no effect and 100 is complete control
Outline: (§1)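 Visual injury scored 0–100 (100 = complete control) against untreated controls about 10 days after treatment in a greenhouse. Test chemicals, formulated with surfactant in non-phytotoxic solvent, were sprayed on soil preemergence or on 2-10 cm, one- to two-leaf plants postemergence.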

giant foxtail [2] = assay: Test A preemergence; assay type: in vivo, Setaria faberii; settings: Setaria faberi, pre-emergence, 240 h, 0 to 100 scale where 0 is no effect and 100 is complete control
Outline: as §1

pigweed [3] = assay: Test A preemergence; assay type: in vivo, Amaranthus retroflexus; settings: Amaranthus retroflexus, pre-emergence, 0 to 100 scale where 0 is no effect and 100 is complete control
Outline: as §1

pigweed [4] = assay: Test A postemergence; assay type: in vivo, Amaranthus retroflexus; settings: Amaranthus retroflexus, post-emergence, 0 to 100 scale where 0 is no effect and 100 is complete control
Outline: as §1

sedge, umbrella = assay: Test B flooded paddy test; assay type: in vivo, Cyperus difformis; settings: Cyperus difformis, Flood, 250 g ai/ha; 0 to 100 scale where 0 is no effect and 100 is complete control; read-out: Plant response rating, Sedge, Umbrella
Outline: (§2)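 Plants were grown to the 2-leaf stage, then pots were flooded to 3 cm above the soil and compounds were applied directly into the paddy water. That depth was held throughout, and after 13 to 15 days in the greenhouse injury was rated visually against controls on a 0–100 scale (0 no effect, 100 complete control).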

barnyardgrass [5] = assay: Test B flooded paddy test; assay type: in vivo, Echinochloa crus-galli; settings: Echinochloa crus-galli; Flood, 250 g ai/ha; 0 to 100 scale where 0 is no effect and 100 is complete control; read-out: Plant response rating, Barnyardgrass
Outline: as §2

blackgrass = assay: Test C postemergence; assay type: in vivo, Alopecurus myosuroides; settings: Alopecurus myosuroides, post-emergence
Outline: (§3)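 Preemergence: seeds sown in a loam soil–sand blend and sprayed with test chemical in a non-phytotoxic solvent mixture containing surfactant. Postemergence: plants at 2 to 18 cm (1- to 4-leaf stage) in peat-based medium, treated with the same formulation. Greenhouse 13 to 15 days, then visual rating 0 (no effect) to 100 (complete control).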

Italian ryegrass = assay: Test C postemergence; assay type: in vivo, Lolium multiflorum
Outline: as §3

corn = assay: Test C postemergence; assay type: in vivo, Zea mays; settings: Zea mays, post-emergence
Outline: as §3

large (Lg) crabgrass = assay: Test C postemergence; assay type: in vivo, Digitaria sanguinalis; settings: Digitaria sanguinalis, post-emergence
Outline: as §3

giant foxtail [6] = assay: Test C postemergence; assay type: in vivo, Setaria faberii; settings: Setaria faberi, post-emergence
Outline: as §3

johnsongrass = assay: Test C postemergence; assay type: in vivo, Sorghum halepense
Outline: as §3

chickweed = assay: Test C postemergence; assay type: in vivo, Stellaria media; settings: Stellaria media, post-emergence
Outline: as §3

[7] = 31 g ai/ha, postemergence, visual rating, scale 0 to 100 (0 no effect, 100 complete control), 13 to 15 days

SMILES: FC(F)c1cn(-c2ccccc2Oc2ncc(Cl)cn2)nn1 [Compound 147, 5-chloro-2-[2-[4-(difluoromethyl)-1H-1,2,3-triazol-1-yl]phenoxy]pyrimidine]
- pest or weed control at 125 g/ha (barnyardgrass [1]; 125 g ai/ha, read-out: Plant response rating, Barnyardgrass): 100%
- pest or weed control at 500 g/ha (barnyardgrass [1]; 500 g ai/ha, read-out: Barnyardgrass plant response rating): 100%
- pest or weed control at 125 g/ha (giant foxtail [2]; 125 g ai/ha, read-out: Plant response rating, Foxtail, Giant): 100%
- pest or weed control at 500 g/ha (giant foxtail [2]; 500 g ai/ha, read-out: Foxtail, Giant plant response rating): 100%
- pest or weed control at 125 g/ha (pigweed [3]; 125 g ai/ha, read-out: Plant response rating, Pigweed): 100%
- pest or weed control at 500 g/ha (pigweed [3]; 240 h, 500 g ai/ha, read-out: Pigweed plant response rating): 100%
- pest or weed control at 500 g/ha (pigweed [4]; 500 g ai/ha, read-out: Plant response rating, Pigweed): 100%
- pest or weed control at 125 g/ha (pigweed [4]; 240 h, 125 g ai/ha, read-out: Pigweed plant response rating): 100%
- pest or weed control at 250 g/ha (sedge, umbrella): 75%
- pest or weed control at 250 g/ha (barnyardgrass [5]): 35%
- pest or weed control at 16 g/ha (blackgrass; 16 g ai/ha, postemergence, 0 is no effect, 100 is complete control, read-out: Plant response rating (0 to 100), Blackgrass): 0%
- pest or weed control at 31 g/ha (blackgrass; 31 g ai/ha, postemergence, visual rating, scale 0 to 100 (0 no effect, 100 complete control), 13 to 15 days, read-out: Blackgrass plant response rating): 0%
- pest or weed control at 125 g/ha (blackgrass; 125 g ai/ha, postemergence, visual rating, scale 0 to 100 (0 no effect, 100 complete control), read-out: Plant response rating, Blackgrass): 10%
- pest or weed control at 62 g/ha (blackgrass; Postemergence, 62 g ai/ha, scale 0 to 100 (0 no effect, 100 complete control), read-out: Plant response rating, Blackgrass): 0%
- Ryegrass, Italian plant response rating (Italian ryegrass; [7]): 0
- pest or weed control at 16 g/ha (Italian ryegrass; Lolium multiflorum, post-emergence, 16 g ai/ha, postemergence, 0 is no effect, 100 is complete control, read-out: Plant response rating (0 to 100), Ryegrass, Italian): 0%
- pest or weed control at 125 g/ha (Italian ryegrass; Lolium multiflorum, post-emergence, 125 g ai/ha, postemergence, visual rating, scale 0 to 100 (0 no effect, 100 complete control), read-out: Plant response rating, Ryegrass, Italian): 5%
- pest or weed control at 62 g/ha (Italian ryegrass; Lolium multiflorum, post-emergence, Postemergence, 62 g ai/ha, scale 0 to 100 (0 no effect, 100 complete control), read-out: Plant response rating, Ryegrass, Italian): 0%
- plant injury at 16 g/ha (corn; 16 g ai/ha, postemergence, 0 is no effect, 100 is complete control, read-out: Plant response rating (0 to 100), Corn): 5%
- plant injury at 31 g/ha (corn; 31 g ai/ha, postemergence, visual rating, scale 0 to 100 (0 no effect, 100 complete control), 13 to 15 days, read-out: Corn plant response rating): 5%
- Corn plant response rating (crop injury, 0 = no effect, 100 = complete kill) at 125 g/ha (corn; 125 g ai/ha, postemergence, visual rating, scale 0 to 100 (0 no effect, 100 complete control)): 10%
- Corn plant response rating (crop injury, 0 = no effect, 100 = complete kill) at 62 g/ha (corn; Postemergence, 62 g ai/ha, scale 0 to 100 (0 no effect, 100 complete control)): 5%
- pest or weed control at 16 g/ha (large (Lg) crabgrass; 16 g ai/ha, postemergence, 0 is no effect, 100 is complete control, read-out: Plant response rating (0 to 100), Crabgrass, Large): 5%
- pest or weed control at 31 g/ha (large (Lg) crabgrass; 31 g ai/ha, postemergence, visual rating, scale 0 to 100 (0 no effect, 100 complete control), 13 to 15 days, read-out: Crabgrass, Large plant response rating): 5%
- pest or weed control at 125 g/ha (large (Lg) crabgrass; 125 g ai/ha, postemergence, visual rating, scale 0 to 100 (0 no effect, 100 complete control), read-out: Plant response rating, Crabgrass, Large): 10%
- pest or weed control at 62 g/ha (large (Lg) crabgrass; Postemergence, 62 g ai/ha, scale 0 to 100 (0 no effect, 100 complete control), read-out: Plant response rating, Crabgrass, Large): 10%
- pest or weed control at 16 g/ha (giant foxtail [6]; 16 g ai/ha, postemergence, 0 is no effect, 100 is complete control, read-out: Plant response rating (0 to 100), Foxtail, Giant): 0%
- pest or weed control at 31 g/ha (giant foxtail [6]; 31 g ai/ha, postemergence, visual rating, scale 0 to 100 (0 no effect, 100 complete control), 13 to 15 days, read-out: Foxtail, Giant plant response rating): 0%
- pest or weed control at 125 g/ha (giant foxtail [6]; 125 g ai/ha, postemergence, visual rating, scale 0 to 100 (0 no effect, 100 complete control), read-out: Plant response rating, Foxtail, Giant): 50%
- pest or weed control at 62 g/ha (giant foxtail [6]; Postemergence, 62 g ai/ha, scale 0 to 100 (0 no effect, 100 complete control), read-out: Plant response rating, Foxtail, Giant): 20%
- Johnsongrass plant response rating (johnsongrass; [7]): 5
- pest or weed control at 16 g/ha (johnsongrass; Sorghum halepense, post-emergence, 16 g ai/ha, postemergence, 0 is no effect, 100 is complete control, read-out: Plant response rating (0 to 100), Johnsongrass): 5%
- pest or weed control at 125 g/ha (johnsongrass; Sorghum halepense, post-emergence, 125 g ai/ha, postemergence, visual rating, scale 0 to 100 (0 no effect, 100 complete control), read-out: Plant response rating, Johnsongrass): 10%
- pest or weed control at 62 g/ha (johnsongrass; Sorghum halepense, post-emergence, Postemergence, 62 g ai/ha, scale 0 to 100 (0 no effect, 100 complete control), read-out: Plant response rating, Johnsongrass): 5%
- pest or weed control at 16 g/ha (chickweed; 16 g ai/ha, postemergence, 0 is no effect, 100 is complete control, read-out: Plant response rating (0 to 100), Chickweed): 15%
- pest or weed control at 31 g/ha (chickweed; 31 g ai/ha, postemergence, visual rating, scale 0 to 100 (0 no effect, 100 complete control), 13 to 15 days, read-out: Chickweed plant response rating): 70%
- pest or weed control at 125 g/ha (chickweed; 125 g ai/ha, postemergence, visual rating, scale 0 to 100 (0 no effect, 100 complete control), read-out: Plant response rating, Chickweed): 90%
- pest or weed control at 62 g/ha (chickweed; Postemergence, 62 g ai/ha, scale 0 to 100 (0 no effect, 100 complete control), read-out: Plant response rating, Chickweed): 75%
